In patent publication EP3362444B1, “COMPOUNDS” (Exonate Limited, priority 2015, dated 2017):

Columns and labels:
SRPK1 [1] = biological target: T1, SRPK1 (Homo sapiens, UniProt Q96SB4); experiment: Differential scanning fluorimetry (DSF); assay type: binding; conditions: higher ΔTm indicates higher affinity
T1 construct: 0.1 µg of purified SRPK1 kinase
Protocol: Differential Scanning Fluorimetry was performed as described in Federov et al (2011). […]

SRPK1 [2] = biological target: T1, SRPK1; experiment: In vitro kinase assay (Kinase-Glo), SRPK1 inhibition; assay type: biochemical; conditions: for IC50: SRPK1 inhibition assay, 1 µM ATP, SRSF1 RS peptide, 30°C 10 minutes
Protocol: Candidate compounds were tested for SRPK1 inhibition using a Kinase-Glo assay (Promega, Southampton, UK32). […] Candidate compounds were serially diluted from 10 µM to 0.5 nM and added to the reaction mixture, wells with omitted SRPK1 kinase and omitted compounds were also added as controls. All wells contained 1% DMSO (Fisher Scientific, Loughborough, UK). One micromolar ATP was added, wells minus ATP were used as background controls. The plate was then incubated at 30°C for 10 minutes. An equal volume of Kinase-Glo (25 µL; Promega) was added to each well and the plate read for luminescence using a Fluostar Optima (BMG Labtech) .

laser-induced CNV = experiment: Laser-induced choroidal neovascularisation (CNV) model, topical eye drops; assay type: in vivo, C57/B6 mice
Protocol: 6-8 week-old female C57/B6 mice were anesthetized with an intraperitoneal injection of a mixture of 50 mg/kg ketamine and 0.5 mg/kg medetomidine. The pupils were immediately dilated by topical (eyedrop) application with a dilator such as 5% phenylephrine hydrochloride and 1% tropicamide. Four photocoagulation lesions were delivered with a green Merilas 532α laser (450 mW, 130 ms) between the "large" retinal vessels in clear space with no vessels in a peripapillary distribution at a distance of 1-2 disc-diameters in each eye. Only clean laser lesions with a subretinal bubble at the time of treatment were included in the study. Immediately following laser photocoagulation the animals were given topical eye drops of candidate compounds twice daily (10 µl, eyes held for 30 seconds to prevent animal wiping drop away).
After one week, mice were anesthetized with an intraperitoneal injection of a mixture of 50 mg/kg ketamine and 0.5 mg/kg medetomidine. The pupils were immediately dilated by topical (eyedrop) application with a dilator such as 5% phenylephrine hydrochloride and 1% tropicamide. Mice were administered an intraperitoneal injection of sodium fluorescein (10%). Phase contrast and green fluorescent fundus images were taken with an angiography microscope and camera with each lesion in focus. The mice were killed by a schedule 1 method and eyes were either unfixed for retinal dissection and protein extraction, or fixed and enucleated and choroids stained and examined.

T1 sequence (Q96SB4 whole entry): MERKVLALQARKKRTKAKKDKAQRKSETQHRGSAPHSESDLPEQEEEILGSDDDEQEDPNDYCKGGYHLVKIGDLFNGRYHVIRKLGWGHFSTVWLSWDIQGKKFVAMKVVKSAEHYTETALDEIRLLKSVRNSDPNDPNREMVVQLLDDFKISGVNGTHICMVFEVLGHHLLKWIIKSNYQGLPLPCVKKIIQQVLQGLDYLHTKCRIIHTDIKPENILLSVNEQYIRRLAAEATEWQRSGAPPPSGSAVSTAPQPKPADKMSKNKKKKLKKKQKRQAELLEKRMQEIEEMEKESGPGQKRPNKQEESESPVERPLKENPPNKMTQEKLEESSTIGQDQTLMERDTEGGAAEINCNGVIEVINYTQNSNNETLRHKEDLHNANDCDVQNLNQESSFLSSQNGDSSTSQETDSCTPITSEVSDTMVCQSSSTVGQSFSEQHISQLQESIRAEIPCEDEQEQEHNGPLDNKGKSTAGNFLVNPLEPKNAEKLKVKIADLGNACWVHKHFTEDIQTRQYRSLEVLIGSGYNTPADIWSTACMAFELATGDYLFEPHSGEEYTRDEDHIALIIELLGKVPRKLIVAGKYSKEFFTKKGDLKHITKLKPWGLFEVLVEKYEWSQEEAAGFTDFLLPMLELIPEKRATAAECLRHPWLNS

DSF (ΔTm/°C) (SRPK1 [1])	IC50 (SRPK1 [2])	Compound	further results
8.84 °C	337 nM	Cc1ccc(C(=O)Nc2cc(C(F)(F)F)ccc2N2CCN(Cc3cn(Cc4ccccc4)nn3)CC2)o1 [Compound 7, N-(2-(4-((1-benzyl-1H-1,2,3-triazol-4-yl)methyl)piperazin-1-yl)-5-(trifluoromethyl)phenyl)-5-methylfuran-2-carboxamide]	
15.95 °C	17.6 nM	Cc1ccc(C(=O)Nc2cc(C(F)(F)F)ccc2N2CCN(Cc3ccco3)CC2)o1 [Compound 8, 5-methyl-N-(2-(4-((furan-2-yl)methyl)piperazin-1-yl)-5-(trifluoromethyl)phenyl)furan-2-carboxamide]	potency against SRPK1 relative to analogous compounds in which R3 is a pyridyl ring (SRPK1 [2]; by kinase assay or differential scanning fluorimetry, Figures 1 and 2): improved potency
11.64 °C	62.4 nM	O=C(Nc1cc(C(F)(F)F)ccc1N1CCN(Cc2cc[nH]n2)CC1)c1ccco1 [Compound 9, N-(2-(4-((1H-pyrazol-3-yl)methyl)piperazin-1-yl)-5-(trifluoromethyl)-phenyl)furan-2-carboxamide]	
10.87 °C		Cn1ccc(CN2CCN(c3ccc(C(F)(F)F)cc3NC(=O)c3ccco3)CC2)n1 [Compound 10, N-(2-(4-((1-methyl-1H-pyrazol-3-yl)methyl)piperazin-1-yl)-5-(trifluoromethyl)phenyl)furan-2-carboxamide]	
12.94 °C		O=C(Nc1cc(C(F)(F)F)ccc1N1CCN(Cc2cscn2)CC1)c1ccco1 [Compound 11, N-(2-(4-(thiazol-4-ylmethyl)piperazin-1-yl)-5-(trifluoromethyl)-phenyl)furan-2-carboxamide]	
12.99 °C	39.5 nM	O=C(Nc1cc(C(F)(F)F)ccc1N1CCN(Cc2cncs2)CC1)c1ccco1 [Compound 13, N-(2-(4-(thiazol-5-ylmethyl)piperazin-1-yl)-5-(trifluoromethyl)-phenyl)furan-2-carboxamide]	
18.03 °C	1.7 nM	O=C(Nc1cc(C(F)(F)F)ccc1N1CCN(Cc2cscn2)CC1)c1ccc(C2CCOCC2)o1 [Compound 19, 5-(tetrahydro-2H-pyran-4-yl)-N-(2-(4-(thiazol-4-ylmethyl)piperazin-1-yl)-5-(trifluoromethyl)phenyl)furan-2-carboxamide]	
14.44 °C		O=C(Nc1cc(C(F)(F)F)ccc1N1CCN(Cc2ccco2)CC1)c1ccccn1 [Compound 28, N-(2-(4-(furan-2-ylmethyl)piperazin-1-yl)-5-(trifluoromethyl)phenyl)-picolinamide]	
11.97 °C		O=C(Nc1cc(Cl)ccc1N1CCN(Cc2ccco2)CC1)c1ccccn1 [Compound 29, N-(5-chloro-2-(4-(furan-2-ylmethyl)piperazin-1-yl)phenyl)picolinamide]	
	32.6 nM	Cc1ccc(CN2CCN(c3ccc(C(F)(F)F)cc3NC(=O)c3ccco3)CC2)o1 [Compound 48, N-(2-(4-((5-methylfuran-2-yl)methyl)piperazin-1-yl)-5-(trifluoromethyl)phenyl)furan-2-carboxamide]	
	117 nM	Cc1nnc(CN2CCN(c3ccc(C(F)(F)F)cc3NC(=O)c3ccco3)CC2)o1 [Compound 49, N-(2-(4-((5-methyl-1,3,4-oxadiazol-2-yl)methyl)piperazin-1-yl)-5-(trifluoromethyl)phenyl)furan-2-carboxamide]	
	561 nM	O=C(Nc1cc(C(F)(F)F)ccc1N1CCN(Cc2cocn2)CC1)c1ccno1 [Compound 50, N-(2-(4-(oxazol-4-ylmethyl)piperazin-1-yl)-5-(trifluoro-methyl)phenyl)isoxazole-5-carboxamide]	
	21 nM	O=C(Nc1cc(C(F)(F)F)ccc1N1CCN(Cc2cocn2)CC1)c1cc2ccccc2o1 [Compound 51, N-(2-(4-(oxazol-4-ylmethyl)piperazin-1-yl)-5-(trifluoro-methyl)-phenyl)benzofuran-2-carboxamide]	
	162 nM	O=C(Nc1cc(C(F)(F)F)ccc1N1CCN(Cc2cocn2)CC1)c1cnccn1 [Compound 52, N-(2-(4-(oxazol-4-ylmethyl)piperazin-1-yl)-5-(trifluoro-methyl)phenyl)pyrazine-2-carboxamide]	
	83.1 nM	O=C(Nc1cc(C(F)(F)F)ccc1N1CCN(Cc2cocn2)CC1)c1cc[nH]n1 [Compound 53, N-(2-(4-(oxazol-4-ylmethyl)piperazin-1-yl)-5-(trifluoro-methyl)phenyl)-1H-pyrazole-3-carboxamide]	
	344 nM	O=C(Nc1cc(C(F)(F)F)ccc1N1CCN(Cc2cocn2)CC1)c1ncccn1 [Compound 54, N-(2-(4-(oxazol-4-ylmethyl)piperazin-1-yl)-5-(trifluoro-methyl)phenyl)pyrimidine-2-carboxamide]	
	1840 nM	O=C(Nc1cc(C(F)(F)F)ccc1N1CCN(Cc2cocn2)CC1)c1nc2ccccc2o1 [Compound 55, N-(2-(4-(oxazol-4-ylmethyl)piperazin-1-yl)-5-(trifluoromethyl)phenyl)benzo[d]oxazole-2-carboxamide]	
	134 nM	O=C(Nc1cc(C(F)(F)F)ccc1N1CCN(Cc2cocn2)CC1)c1ccncn1 [Compound 56, N-(2-(4-(oxazol-4-ylmethyl)piperazin-1-yl)-5-(trifluoro-methyl)phenyl)pyrimidine-4-carboxamide]	
	117 nM	O=C(Nc1cc(C(F)(F)F)ccc1N1CCN(Cc2cocn2)CC1)c1cocn1 [Compound 57, N-(2-(4-(oxazol-4-ylmethyl)piperazin-1-yl)-5-(trifluoro-methyl)phenyl)oxazole-4-carboxamide]	
	104 nM	O=C(Nc1cc(C(F)(F)F)ccc1N1CCN(Cc2cocn2)CC1)c1cccc(C2CCOCC2)n1 [Compound 58, N-(2-(4-(oxazol-4-ylmethyl)piperazin-1-yl)-5-(trifluoromethyl)phenyl)-6-(tetrahydro-2H-pyran-4-yl)picolinamide]	
	974 nM	O=C(Nc1cc(C(F)(F)F)ccc1N1CCN(Cc2cocn2)CC1)c1ccc(C2CCOCC2)cn1 [Compound 59, N-(2-(4-(oxazol-4-ylmethyl)piperazin-1-yl)-5-(trifluoromethyl)phenyl)-5-(tetrahydro-2H-pyran-4-yl)picolinamide]	
	2.8 nM	O=C(Nc1cc(C(F)(F)F)ccc1N1CCN(Cc2ccno2)CC1)c1ccccn1 [Compound 62, N-(2-(4-(isoxazol-5-ylmethyl)piperazin-1-yl)-5-(trifluoro-methyl)phenyl)picolinamide]	
	317 nM	O=C(Nc1cc(C(F)(F)F)ccc1N1CCN(Cc2ccno2)CC1)c1ccco1 [Compound 63, N-(2-(4-(isoxazol-5-ylmethyl)piperazin-1-yl)-5-(trifluoro-methyl)phenyl)furan-2-carboxamide]	
	5.5 nM	O=C(Nc1cc(C(F)(F)F)ccc1N1CCN(Cc2ccno2)CC1)c1ccc(C2CCOCC2)o1 [Compound 64, N-(2-(4-(isoxazol-5-ylmethyl)piperazin-1-yl)-5-(trifluoro-methyl)phenyl)-5-(tetrahydro-2H-pyran-4-yl)furan-2-carboxamide]	
	8.8 nM	O=C(Nc1cc(C(F)(F)F)ccc1N1CCN(Cc2cnoc2)CC1)c1ccccn1 [Compound 67, N-(2-(4-(isoxazol-4-ylmethyl)piperazin-1-yl)-5-(trifluoro-methyl)phenyl)-picolinamide]	
	0.5 nM	O=C(Nc1cc(C(F)(F)F)ccc1N1CCN(Cc2cncs2)CC1)c1ccc(C2CCOCC2)o1 [Compound 70, 5-(tetrahydro-2H-pyran-4-yl)-N-(2-(4-(thiazol-5-ylmethyl)piperazin-1-yl)-5-(trifluoromethyl)phenyl)furan-2-carboxamide]	
	718 nM	O=C(Nc1cc(C(F)(F)F)ccc1N1CCN(Cc2cocn2)CC1)c1ccccc1 [Compound 71, N-(2-(4-(oxazol-4-ylmethyl)piperazin-1-yl)-5-(trifluoromethyl)phenyl) benzamide]	
	5.3 nM	O=C(Nc1cc(C(F)(F)F)ccc1N1CCN(Cc2ccoc2)CC1)c1ccccn1 [Compound 72, N-(2-(4-(furan-3-ylmethyl)piperazin-1-yl)-5-(trifluoromethyl)phenyl)picolinamide]	
	74.9 nM	O=C(Nc1cc(C(F)(F)F)ccc1N1CCN(Cc2c[nH]c3ccccc23)CC1)c1ccco1 [Compound 75, N-(2-(4-((1H-indol-3-yl)methyl)piperazin-1-yl)-5-(trifluoromethyl)phenyl)furan-2-carboxamide]	
		O=C(Nc1cc(C(F)(F)F)ccc1N1CCN(Cc2cocn2)CC1)c1ccc(-c2ccncc2)o1 [N-(2-(4-(oxazol-4-ylmethyl)piperazin-1-yl)-5-(trifluoromethy] [N-(2-(4-(oxazol-4-ylmethyl)piperazin-1-yl)-5-(trifluoromethyl)phenyl)-5-(pyridin-4-yl)furan-2-carboxamide]	factor more effective than the known pazopanib-based eye drop treatment for AMD (laser-induced CNV; eye drop): 10; anti-angiogenic efficacy as an eye drop (CNV lesion size) (laser-induced CNV; twice daily eye drops, compared with reference compound, Figures 4-7): same efficacy
